Results: publication PMC11981937 (Nature, 2025)
“And” between values parts separate entries of the source, which are not always exact repeats. Equal values may be shown once. “Also recorded” adds a separate entry of the source. Read-outs that look alike come from different tables or passages of the source.

How the values were obtained:
in vivo = details: cynomolgus monkey
Huh7 cells = details: human
[1] = biological target: purified recombinant SARS-CoV-2 M (Severe acute respiratory syndrome coronavirus 2, UniProt P0DTC5); experiment: Nano differential scanning fluorimetry (nanoDSF); type: binding; details: 100 µM compound, 0.5 mg/ml M protein, n=3
in vitro [2] = details: human
[3] = Post-exposure Syrian golden hamster model, body weight; details: in vivo, 75 mg/kg
in vitro [4] = details: African green monkey
SHC014 = experiment: organism not typed; type: cell-based, bat SHC014
SARS-CoV-2 = type: in vivo, Syrian golden hamster; details: for Infectious virus in the lung (TCID50), average Log 10 / Infectious virus in the lung (TCID50), median Log 10 / Viral load (viral RNA) in the lung, average Log 10 / Viral load (viral RNA) in the lung, median Log 10 / Infectious virus in the lung (TCID50), Copy number, individual animal / Infectious virus in the lung (TCID50), Log 10, individual animal / Viral load (viral RNA) in the lung, Copy number, individual animal / Viral load (viral RNA) in the lung, Log 10, individual animal: 75 mg/kg BID; for Infectious virus in the lung (TCID50), average Log 10 / Infectious virus in the lung (TCID50), median Log 10 / Viral load (viral RNA) in the lung, average Log 10 / Viral load (viral RNA) in the lung, median Log 10: n=5; for Infectious virus in the lung (TCID50), Copy number, individual animal / Infectious virus in the lung (TCID50), Log 10, individual animal / Viral load (viral RNA) in the lung, Copy number, individual animal / Viral load (viral RNA) in the lung, Log 10, individual animal: listed as 87009676-AAA
HCoV-229E = experiment: microbe, parasite or virus in culture; type: cell-based
SARS-CoV (FFM1 strain) = experiment: microbe, parasite or virus in culture; type: cell-based; details: Severe acute respiratory syndrome coronavirus
[5] = test system: SARS-CoV-2 (USA-WA1/2020); set-up: species or system Syrian golden hamster; details: hamster, in vivo
MHV = MHV antiviral assay in HeLa cells (luciferase); type: cell-based, mouse hepatitis virus; details: Murine coronavirus, MHV (betaCoV)
SARS-CoV-2 (B1) = type: cell-based

C[C@H]1Cn2ncc(C(=O)Nc3cccc(C#N)c3)c2C(=O)N1c1ccc(C(F)(F)c2ccccc2)cc1 [JNJ-9676, (S)-N-(3-cyanophenyl)-5-(4-(difluoro(phenyl)methyl)phenyl)-6-methyl-4-oxo-4,5,6,7-tetrahydropyrazolo[1,5-a]pyrazine-3-carboxamide]
Vd (in vivo): 5.1 L/kg | clearance (in vivo): 1.9 mL/min/kg | half-life (in vivo): 35 h | bioavailability (in vivo; po): > 30% | CC50 (Huh7 cells): > 30 µM | Tm [1]: 54.1 ± 0.1 °C | ΔTm (stabilization in melting temperature) [1]: 0.9 °C | CC50 (in vitro [2]; Median CC50): > 20 µM | CC50 (in vitro [2]; Median CC50, Huh7, line of MHV, N=2): > 20 µM | CC50 (in vitro [2]; Median CC50, Huh7, line of PDCoV, N=2): > 30 µM | Average body weight change (%) on day 4 compared to day 0 [3]: -0.615% and -5.840% and -3.968% | CC50 (in vitro [4]): > 50 µM | EC50 (SHC014): 0.004 to 0.006 µM | Infectious virus in the lung (TCID50), average Log 10 (SARS-CoV-2; 10 h post exposure): 1.99 Log 10 | Infectious virus in the lung (TCID50), median Log 10 (SARS-CoV-2; 10 h post exposure): 1.84 Log 10 | Viral load (viral RNA) in the lung, average Log 10 (SARS-CoV-2; 10 h post exposure): 6.33 Log 10 | Viral load (viral RNA) in the lung, median Log 10 (SARS-CoV-2; 10 h post exposure): 6.02 Log 10 | Infectious virus in the lung (TCID50), Copy number, individual animal (SARS-CoV-2; 10 h post exposure): 3.34E+02 and 6.93E+01 and 7.21E+00 and 6.50E+01 and 8.01E+02 | Infectious virus in the lung (TCID50), Log 10, individual animal (SARS-CoV-2; 10 h post exposure): 2.52 Log 10 and 1.84 Log 10 and 0.86 Log 10 and 1.81 Log 10 and 2.90 Log 10 | Viral load (viral RNA) in the lung, Copy number, individual animal (SARS-CoV-2; 10 h post exposure): 1.05E+06 and 4.63E+06 and 1.13E+05 and 8.39E+05 and 9.46E+07 | Viral load (viral RNA) in the lung, Log 10, individual animal (SARS-CoV-2; 10 h post exposure): 6.02 Log 10 and 6.67 Log 10 and 5.05 Log 10 and 5.92 Log 10 and 7.98 Log 10 | Infectious virus in the lung (TCID50), average Log 10 (SARS-CoV-2; 24 h post exposure): 1.64 Log 10 | Infectious virus in the lung (TCID50), median Log 10 (SARS-CoV-2; 24 h post exposure): 1.62 Log 10 | Viral load (viral RNA) in the lung, average Log 10 (SARS-CoV-2; 24 h post exposure): 6.39 Log 10 | Viral load (viral RNA) in the lung, median Log 10 (SARS-CoV-2; 24 h post exposure): 6.81 Log 10 | Infectious virus in the lung (TCID50), Copy number, individual animal (SARS-CoV-2; 24 h post exposure): 4.14E+01 and 7.14E+01 and 5.40E+01 and 2.87E+01 and 3.52E+01 | Infectious virus in the lung (TCID50), Log 10, individual animal (SARS-CoV-2; 24 h post exposure): 1.62 Log 10 and 1.85 Log 10 and 1.73 Log 10 and 1.46 Log 10 and 1.55 Log 10 | Viral load (viral RNA) in the lung, Copy number, individual animal (SARS-CoV-2; 24 h post exposure): 9.36E+06 and 2.59E+04 and 3.10E+05 and 6.49E+06 and 1.85E+08 | Viral load (viral RNA) in the lung, Log 10, individual animal (SARS-CoV-2; 24 h post exposure): 6.97 Log 10 and 4.41 Log 10 and 5.49 Log 10 and 6.81 Log 10 and 8.27 Log 10 | Infectious virus in the lung (TCID50), average Log 10 (SARS-CoV-2; 48 h post exposure): 1.82 Log 10 | Infectious virus in the lung (TCID50), median Log 10 (SARS-CoV-2; 48 h post exposure): 1.67 Log 10 | Viral load (viral RNA) in the lung, average Log 10 (SARS-CoV-2; 48 h post exposure): 7.33 Log 10 | Viral load (viral RNA) in the lung, median Log 10 (SARS-CoV-2; 48 h post exposure): 7.46 Log 10 | Infectious virus in the lung (TCID50), Copy number, individual animal (SARS-CoV-2; 48 h post exposure): 4.79E+01 and 7.10E+02 and 4.67E+01 and 2.27E+01 and 3.31E+01 | Infectious virus in the lung (TCID50), Log 10, individual animal (SARS-CoV-2; 48 h post exposure): 1.68 Log 10 and 2.85 Log 10 and 1.67 Log 10 and 1.36 Log 10 and 1.52 Log 10 | Viral load (viral RNA) in the lung, Copy number, individual animal (SARS-CoV-2; 48 h post exposure): 5.20E+06 and 3.10E+06 and 6.15E+07 and 1.50E+08 and 2.86E+07 | Viral load (viral RNA) in the lung, Log 10, individual animal (SARS-CoV-2; 48 h post exposure): 6.72 Log 10 and 6.49 Log 10 and 7.79 Log 10 and 8.18 Log 10 and 7.46 Log 10 | efficacy (in words) (SARS-CoV-2; hamster, in vivo): efficacious; also recorded: significant efficacy | reduction of infectious virus in the lung (SARS-CoV-2; hamster, in vivo): 1.8 log10[TCID50 per mg lung] | Infectious virus in the lung, reduction relative to vehicle (SARS-CoV-2; hamster, in vivo, 75 mg/kg): 1.65 (p=0.0003) log10 TCID50/mg lung and 2.00 (p<0.0001) log10 TCID50/mg lung and 1.83 (p<0.0001) log10 TCID50/mg lung and 1.65 (p=0.0003) log10 TCID50/mg lung and 2.00 (p<0.0001) log10 TCID50/mg lung and 1.83 (p<0.0001) log10 TCID50/mg lung | Viral load in the lung, reduction relative to vehicle (SARS-CoV-2; hamster, in vivo, 75 mg/kg): 2.38 (p=0.0004) log10 copies/mg lung and 2.32 (p=0.0005) log10 copies/mg lung and 1.38 (p>0.05) log10 copies/mg lung and 2.38 (p=0.0004) log10 copies/mg lung and 2.32 (p=0.0005) log10 copies/mg lung and 1.38 (p>0.05) log10 copies/mg lung | EC50 (HCoV-229E; Human coronavirus 229E, Huh-7, read-out: Median EC50): > 30 µM | EC90 (HCoV-229E; Human coronavirus 229E, Huh-7, read-out: Median EC90): > 30 µM | antiviral activity (in words) (HCoV-229E; […], cell type not given): no activity | EC50 (SARS-CoV (FFM1 strain); read-out: Median EC50): 0.021 µM | EC90 (SARS-CoV (FFM1 strain); read-out: Median EC90): 0.045 µM | Infectious SARS-CoV2 virus in the lung, Avg [5]: 137996 PFU/g Lung and 75729 PFU/g Lung | Infectious SARS-CoV2 virus in the lung, Log10, Avg [5]: 3.732 Log10 PFU/g Lung and 3.479 Log10 PFU/g Lung | EC50 (MHV; read-out: EC50 (column Median EC50; N=1, no median)): 1.3 µM | EC90 (MHV; read-out: EC90 (column Median EC90; N=1, no median)): 6.3 µM | biogenesis of infectious progeny (SARS-CoV-2 (B1)): inhibited completely
